Measurements from PubChem BioAssay AID504672 (Sanford-Burnham Center for Chemical Genomics, 2011).
Active and inactive are the calls of the source. Cut-off read from the data, not from the text of the source: active = IC50 below about 71 µM; inactive = the rest.

Each compound was assayed on S. cerevisiae tim10 strain, luminescence counterscreen (assay: signal inhibition in TIM10 yeast counter-screen, dose response, counter-screen for tim23-1 inhibitor project, luminescence, S. cerevisiae, uHTS hits (AID 504672);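 note: yeast grew roughly 22 hours at 25 °C before the luminescence read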).

SMILES	IC50
O=Cc1ccccc1OCc1ccc2c(c1)OCO2	5.65 µM
COc1cccc(CNn2c(-c3cccc(C)c3)nc3ccccc3c2=O)c1O	13 µM
O=C1Nc2ccccc2/C1=C/c1ccccc1Cl	8.06 µM
CC1(S(=O)(=O)O)CC(=O)c2ccccc2C1=O (stereo not drawn)	7.14 µM
CCOC(=O)c1c(C)oc2c1c(C(c1cccnc1)N1CCCCC1)c(O)c1ccccc12 (stereo not drawn)	36.1 µM
COc1ccc(C(=O)Nc2nc3ccccc3s2)c(OC)c1	7.13 µM
O=C(Nc1ccc(F)c(Cl)c1)c1ccccc1	5.55 µM
c1ccc2[nH]c(-c3ccc4c(c3)OCO4)nc2c1	12.4 µM
Cc1ccc(CS(=O)(=O)c2ncc(Cl)c(C(=O)Nc3ccc(OC(F)F)cc3)n2)cc1	5.88 µM
Cc1ccc2[nH]cc(C(=O)CCl)c2c1	26.1 µM
COc1cccc2c1C(=O)C=C(C)C2=O	13.2 µM
O=C(Oc1cccc2c(O)cccc12)c1ccccc1	4.84 µM
CC1CCc2c(c3ccccc3n2C(=O)CCl)C1 (stereo not drawn)	5.12 µM
Cc1ccc2nc(NC(=O)Cn3nc(C)c([N+](=O)[O-])c3C)sc2c1	18.2 µM
Cc1cccc(OCCN2C(=O)C(=O)c3cc(C)ccc32)c1	11.6 µM
COc1cc2c3c(c1)C(C)=CC(C)(C)N3C(=O)C2=O	16 µM
CCOC(=O)c1c(NC(=O)CSc2nnnn2-c2ccc(OC)cc2)sc(C)c1C	11.6 µM
Cc1nc(-c2ccc(NC(=O)c3ccccc3)cc2)cs1	8.18 µM
Cc1ccc(-c2nn(-c3ccccc3)cc2NC(=O)CCl)cc1	26.7 µM
COC(=O)N/N=C/c1ccc(-c2cc(Cl)cc(Cl)c2)o1	18 µM
Cc1ccc(Nc2nc(Cl)c(C=O)s2)cc1Cl	3.45 µM

SMILES	IC50
Oc1ccc2ccccc2c1/C=N/c1nccs1	8.43 µM
Cc1[nH]c2ccccc2c1C(=O)/C=C/c1ccccc1	12.9 µM
O=C(Oc1ccc(=O)n(-c2ccccc2)n1)c1ccc(Cl)cc1	34.7 µM
Oc1ccc(Br)cc1/C=N/Nc1ccccn1	5.94 µM
O=C(Nc1ccc2nc(-c3ccc(Br)o3)[nH]c2c1)c1ccco1	6.75 µM
CSc1nnc(C(C)(C)C)c(=O)n1/N=C/c1ccccc1	56.6 µM
N=c1c2c(-c3ccccc3)c(-c3ccccc3)n(Cc3ccco3)c2ncn1Cc1ccco1	14.6 µM
Cc1ccc(NC(=S)NC(=O)C2CC2)cc1Cl	8.83 µM
Nc1ccc(/C=C/C(=O)c2cccs2)cc1	3.17 µM
N#C/C(=C\c1ccc(O)cc1)c1nc2ccccc2o1	17.6 µM
O=C(N/N=C/c1coc2ccc(Cl)cc2c1=O)c1cc(O)cc(O)c1	44.8 µM
Oc1ccccc1C1NN=C(c2ccccc2)S1 (stereo not drawn)	> 100 µM (inactive)
O=C(c1cc(-c2ccc(O)cc2)on1)N1CCc2ccccc2C1	17.1 µM
COc1cc2c3c(c1)C(C)CC(C)(C)N3C(=O)C2=O (stereo not drawn)	13.8 µM
Cc1cccc(N2C(=O)c3ccc(Br)cc3C2=O)n1	7.58 µM
Brc1ccc(OCc2nnnn2-c2ccccc2)cc1	11 µM
CCCCn1c(N)c(N(CCC(C)C)C(=O)c2ccc3c(c2)OCO3)c(=O)[nH]c1=O	> 100 µM (inactive)
C[C@@]12C(=O)Nc3ccc(Cl)cc3C(=O)N1[C@H]1c3ccccc3OC[C@@H]1[C@@H]2c1ccccc1	3.46 µM
O=c1c(O)c(-c2ccccc2)oc2cc(O)cc(O)c12	35.5 µM
CC1=C(C)/C(=N/OC(=O)c2cccc([N+](=O)[O-])c2)C=CC1=O	5.21 µM
O=C1NN=C(c2ccc(Br)cc2)CC1c1ccc(Cl)cc1 (stereo not drawn)	23.2 µM

SMILES	IC50
CCOc1ccc(N=C(C)C2=C(O)c3ccccc3C2=O)cc1	26.4 µM
CCCCc1cc(O)c(CCCC)c(O)c1	1.21 µM
Cc1cc(C)nc(SCC(=O)c2cc3ccccc3oc2=O)n1	32.1 µM
CCOC(=O)c1ccc(NC(=O)CSc2nc(=O)n3cccc(C)c3n2)cc1	53.6 µM
O=[N+]([O-])c1cc(O)c2ncccc2c1	7.75 µM
COC(=O)c1ccc2nc(NC(=O)C3CC3)sc2c1	15.3 µM
OCCOCCNc1ncnc2c1c(-c1ccccc1)cn2-c1ccccc1	11.7 µM
CC1CCc2c(sc3nc(C(C)(C)C)nc(N4CCN(C(=O)CCl)CC4)c23)C1 (stereo not drawn)	23.3 µM
O=C(N/N=C/c1ccco1)c1cc2ccccc2o1	22.2 µM
O=C(CSc1cccc[n+]1[O-])Nc1ccccc1Oc1ccccc1	17.7 µM
COc1cccc(Nc2nc(-c3ccccc3)nc3ccccc23)c1	7.48 µM
COc1ccc(C(=O)c2sc(Nc3ccccc3F)nc2N)cc1	16.5 µM
N#C/C(N)=C(/C#N)N=Cc1cccc(Cl)c1	14.2 µM
O=c1c2ccccc2[nH]c(=S)n1CCN1CCC(=C(c2ccc(F)cc2)c2ccc(F)cc2)CC1	12.7 µM
Clc1nssc1=Nc1nncs1	2.6 µM
O=C(NC(=O)c1ccccc1F)OCc1ccc(Cl)cc1Cl	15 µM
O=C(CSc1cccs1)Nc1ccc2ccccc2c1	24.4 µM
CCN(CC)c1ccc(/C=N/NC(=O)c2ccc3c(c2)OCCO3)cc1	11.5 µM
O=C(N/N=C/C=C\c1ccco1)c1cccs1	70 µM
COc1ccc(OC)c(-c2csc(NC(=O)Cc3ccc(F)cc3)n2)c1	27.7 µM
CCCN(C(=O)c1ccc([N+](=O)[O-])c(C)c1)c1c(N)n(Cc2ccccc2)c(=O)[nH]c1=O	> 100 µM (inactive)
